According to patent publication US20240027453A1, “METHOD FOR DETECTION AND QUANTITATIVE MONITORING OF INFECTIONS WITH HERPESVIRUSES” (The Trustees of Princeton University, priority 2020, published 2024):
Like-named read-outs stand apart in the source and are kept apart here.

Tested on: HCMV
Format: cell-based
Conditions: FIG. 7A
Description: In example herpesvirus PRM assay methods shown herein, cell pellets were lysed in 2% SDS, 100 mM NaCl, 0.5 mM EDTA, 50 mM Tris, pH 8.2, and 50 μg of protein was reduced and alkylated with 25 mM TCEP and 50 mM CAM respectively for 20 min at 70° C. Proteins were then precipitated via methanol chloroform precipitation (Wessel & Flugg, Anal Biochem. 138(1):141-143, 1984), resuspended in 50 mM HEPES, pH 8.2 and digested overnight with trypsin (50:1 protein:enzyme w/w ratio). Digested peptides were desalted by SDB-RPS StageTip as previously described (Lum et al., Cell Syst., 7(6):[…], 2018; Greco et al., Methods Mol Biol 1410:39-63, 2016; Federspiel & Cristea, Methods Mol Biol., 1977:115-143, 2019).
Peptides (1.0 μg on column) were analyzed by LC-MS/MS using a Dionex Ultimate 3000 UHPLC coupled online to an EASYSpray ion source and a Q Exactive HF. Peptides were separated on an EASYSpray C18 column (75 μm×25 cm) heated to 50° C. using a linear gradient of 5% B to 32% B over 60 min at a flow rate of 250 nL/min and were ionized at 1.7 kv. Mobile phase A consisted of 0.1% FA in H2O and mobile phase B consisted of 0.1% FA, 2.9% H2O in ACN.
The PRM method was controlled by a peptide inclusion list with retention time windows of 6 min for selected precursor ions.
The PRM assay was developed and analyzed using the open-source software Skyline (Maclean et al., Bioinformatics 26(7):966-968, 2010). Summed area under the curve of 3-4 transitions per peptide was used for quantitation. Targeted peptides were normalized to host protein loading control peptides. Peptide values for each sample were scaled to the average of each peptide across all runs. The average of multiple peptides was used as the inferred value for the protein measurement when more than one peptide was quantified (Federspiel et al., PLoS Biol. 17(9):e3000437. Doi: 10.1371/journal.pbio.3000437). PRM quantitation data were graphed using the Python Seaborn and Matplotlib libraries.
MRC5 primary human fibroblasts (HFs) (ATCC CCL-171) were used as the model system for HSV-1 and HCMV infections and were cultured in complete growth medium (DMEM supplemented with 10% fetal bovine serum and 1% penicillin-streptomycin antibiotics) at 37° C. and 5% CO2. iSLK.219 cells harboring latent KSHV (a gift from Dr. Britt Glaunsinger, University of California, Berkeley) were grown in complete growth medium supplemented with 500 μg/ml hygromycin (ThermoFisher Scientific, 10687010) at 37° C. and 5% CO2. All cells were used for experiments within a maximum of 10 passages.
Wild type HSV-1 strain 17+ (a gift from Beate Sodeik, Hannover Medical School, Hannover, Germany) was propagated as previously described (Diner et al., 2015). Briefly, PO stocks were generated by electroporating pBAC-HSV-1 into U-2 OS cells. […] In a similar manner, wild type HCMV strain AD169 was produced from BAC electroporation into HFs and working stocks were propagated by infecting HFs at a low level. In both cases, cell-associated virus was released by sonication, combined with supernatant virus, then concentrated by ultracentrifugation (20,000 rpm, 2 hours, 4° C. with SW28 swinging bucket rotor [Beckman Coulter]) over a 10% ficoll (HSV-1) or 20% sorbitol (HCMV) cushion. Virus stock titers were determined by plaque assay for HSV-1 or tissue culture infectious dose (TCID50) for HCMV and infections were performed at a multiplicity of infection (MOI) of 3.
12 hours prior to virus infection or reactivation, cells were treated with either the small molecule drug or DMSO/PBS control at an equivalent volume. […] For infection cycles lasting longer than 24 hours, small molecule drugs were re-added to the cell culture medium every 24 hours. Upon collection, cells were rinsed with PBS, scraped into a microcentrifuge tube, pelleted by centrifugation, and rinsed again with PBS.

Oc1ccc(C=Cc2cc(O)cc(O)c2)cc1 [Resveratrol]
UL122 (P19893) protein level (timepoint 48, IE): 0.07155 | UL123 (P13202) protein level (timepoint 48, IE): 0.9494 | CVC1 (P16799) protein level (timepoint 48, L): 0.3339 | GO (P16750) protein level (timepoint 48, L): 0.02075 | IR11 (P16809) protein level (timepoint 48, L): 0.3219 | MCP (P16729) protein level (timepoint 48, L): 0.008603 | SCP (Q7M6N6) protein level (timepoint 48, L): 0.008886 | TRM2 (P16792) protein level (timepoint 48, L): 0.03458 | UL22A (P16845) protein level (timepoint 48, L): 0.2188 | UL25 (P16761) protein level (timepoint 48, L): 0.07603 | UL29 (P16764) protein level (timepoint 48, L): 0.5648 | UL30 (P16765) protein level (timepoint 48, L): 0.14 | UL31 (P16848) protein level (timepoint 48, L): 0.3217 | UL43 (P16781) protein level (timepoint 48, L): 0.06887 | UL52 (P16793) protein level (timepoint 48, L): 0.09774 | UL80 (P16753) protein level (timepoint 48, L): 0.04182 | UL82 (P06726) protein level (timepoint 48, L): 0.2191 | UL88 (P16731) protein level (timepoint 48, L): 0.09401 | UL94 (P16800) protein level (timepoint 48, L): 0.1811 | UL99 (P13200) protein level (timepoint 48, L): 0.09897 | UL103 (P16734) protein level (timepoint 48, L): 0.1489 | UL117 (P16770) protein level (timepoint 48, L): 0.4909 | gL (P16832) protein level (timepoint 48, L): 0.05817 | gM (P16733) protein level (timepoint 48, L): 0.04711 | gN (P16795) protein level (timepoint 48, L): 0.08482 | DUT (P16824) protein level (timepoint 48, LL): 0.2262 | IR12 (P16810) protein level (timepoint 48, LL): 0.2614 | TRM3 (P16732) protein level (timepoint 48, LL): 0.02426 | TRX1 (P16783) protein level (timepoint 48, LL): 0.01259 | TRX2 (P16728) protein level (timepoint 48, LL): 0.01003 | UL24 (P16760) protein level (timepoint 48, LL): 0.1046 | UL40 (P16780) protein level (timepoint 48, LL): 1.098 | UL47 (P16784) protein level (timepoint 48, LL): 0.04257 | UL49 (P16786) protein level (timepoint 48, LL): 0.91 | UL69 (P16749) protein level (timepoint 48, LL): 0.3024 | UL70 (P17149) protein level (timepoint 48, LL): 0.5546 | UL83 (P06725) protein level (timepoint 48, LL): 0.03671 | UL132 (P69338) protein level (timepoint 48, LL): 0.2027 | US15 (P09718) protein level (timepoint 48, LL): 1.334 | CVC2 (P16726) protein level (timepoint 72, DE): 0.05308 | DBP (P17147) protein level (timepoint 72, DE): 0.2031 | HELI (P16736) protein level (timepoint 72, DE): 0.7626 | IR01 (P09710) protein level (timepoint 72, DE): 0.4495 | NEC2 (P16791) protein level (timepoint 72, DE): 0.231 | RIR1 (P16782) protein level (timepoint 72, DE): 0.1696 | TRM1 (P16724) protein level (timepoint 72, DE): 0.1736 | UL4 (P17146) protein level (timepoint 72, DE): 0.1863 | UL26 (P16762) protein level (timepoint 72, DE): 0.087 | UL32 (P08318) protein level (timepoint 72, DE): 0.09834 | UL34 (P16812) protein level (timepoint 72, DE): 0.1945 | UL35 (P16766) protein level (timepoint 72, DE): 0.0668 | UL38 (P16779) protein level (timepoint 72, DE): 0.6571 | UL44 (P16790) protein level (timepoint 72, DE): 0.1077 | UL48 (P16785) protein level (timepoint 72, DE): 0.0769 | UL54 (P08546) protein level (timepoint 72, DE): 0.8921 | UL71 (P16823) protein level (timepoint 72, DE): 0.4201 | UL78 (P16751) protein level (timepoint 72, DE): 0.4371 | UL84 (P16727) protein level (timepoint 72, DE): 0.1807 | UL95 (P16801) protein level (timepoint 72, DE): 0.4887 | UL96 (P16787) protein level (timepoint 72, DE): 0.2804 | UL97 (P16788) protein level (timepoint 72, DE): 0.2884 | UL98 (P16789) protein level (timepoint 72, DE): 0.2614 | UL102 (P16827) protein level (timepoint 72, DE): 1.1 | UL104 (P16735) protein level (timepoint 72, DE): 0.1108 | UL112/UL113 (P17151) protein level (timepoint 72, DE): 0.3912 | UL114 (P16769) protein level (timepoint 72, DE): 1.097 | UL119/UL118 (P16739) protein level (timepoint 72, DE): 0.2241 | UL128 (P16837) protein level (timepoint 72, DE): 0.03713 | US8 (P09730) protein level (timepoint 72, DE): 1.041 | US9 (P09729) protein level (timepoint 72, DE): 1.966 | US12 (P09721) protein level (timepoint 72, DE): 0.2709 | US13 (P09720) protein level (timepoint 72, DE): 0.5064 | US14 (P09719) protein level (timepoint 72, DE): 0.1413 | US22 (P09722) protein level (timepoint 72, DE): 0.5654 | US23 (P09701) protein level (timepoint 72, DE): 0.5216 | US24 (P09700) protein level (timepoint 72, DE): 0.3422 | gB (P06473) protein level (timepoint 72, DE): 0.2078 | IRS1 (P09715) protein level (timepoint 72, IE): 1.155 | TRS1 (P09695) protein level (timepoint 72, IE): 1.081 | UL13 (P16755) protein level (timepoint 72, IE): 0.4777 | UL36 (P16767) protein level (timepoint 72, IE): 0.8125 | UL37 (P16778) protein level (timepoint 72, IE): 0.998 | UL122 (P19893) protein level (timepoint 72, IE): 0.0988 | UL123 (P13202) protein level (timepoint 72, IE): 0.8573 | CVC1 (P16799) protein level (timepoint 72, L): 0.4295 | GO (P16750) protein level (timepoint 72, L): 0.03881 | IR11 (P16809) protein level (timepoint 72, L): 0.253 | MCP (P16729) protein level (timepoint 72, L): 0.01144 | SCP (Q7M6N6) protein level (timepoint 72, L): 0.004632 | TRM2 (P16792) protein level (timepoint 72, L): 0.02287 | UL22A (P16845) protein level (timepoint 72, L): 0.2623 | UL25 (P16761) protein level (timepoint 72, L): 0.1265 | UL29 (P16764) protein level (timepoint 72, L): 0.4756 | UL30 (P16765) protein level (timepoint 72, L): 0.1344 | UL31 (P16848) protein level (timepoint 72, L): 0.3595 | UL43 (P16781) protein level (timepoint 72, L): 0.07284 | UL52 (P16793) protein level (timepoint 72, L): 0.1143 | UL76 (P16725) protein level (timepoint 72, L): 0.0261 | UL80 (P16753) protein level (timepoint 72, L): 0.05404 | UL82 (P06726) protein level (timepoint 72, L): 0.2813 | UL87 (P16730) protein level (timepoint 72, L): 0.03862 | UL88 (P16731) protein level (timepoint 72, L): 0.1555 | UL94 (P16800) protein level (timepoint 72, L): 0.2402 | UL99 (P13200) protein level (timepoint 72, L): 0.1374 | UL103 (P16734) protein level (timepoint 72, L): 0.1294 | UL117 (P16770) protein level (timepoint 72, L): 0.3032 | gH (P12824) protein level (timepoint 72, L): 0.1717 | gL (P16832) protein level (timepoint 72, L): 0.07772 | gM (P16733) protein level (timepoint 72, L): 0.06954 | gN (P16795) protein level (timepoint 72, L): 0.07119 | IR12 (P16810) protein level (timepoint 72, LL): 0.182 | TRM3 (P16732) protein level (timepoint 72, LL): 0.02749 | TRX1 (P16783) protein level (timepoint 72, LL): 0.01995 | TRX2 (P16728) protein level (timepoint 72, LL): 0.01998 | UL24 (P16760) protein level (timepoint 72, LL): 0.1072 | UL40 (P16780) protein level (timepoint 72, LL): 0.6851 | UL47 (P16784) protein level (timepoint 72, LL): 0.08828 | UL49 (P16786) protein level (timepoint 72, LL): 1.209 | UL69 (P16749) protein level (timepoint 72, LL): 0.3758 | UL70 (P17149) protein level (timepoint 72, LL): 0.682 | UL83 (P06725) protein level (timepoint 72, LL): 0.03846 | UL132 (P69338) protein level (timepoint 72, LL): 0.215 | US15 (P09718) protein level (timepoint 72, LL): 0.6869
